Test results taken from ChEMBL document CHEMBL1143994, “New terpenoids from Maytenus apurimacensis as MDR reversal agents in the parasite Leishmania” (2008).

Tests used:
Assay type in all cases: functional
Leishmania tropica [1] = assay: Growth inhibition of multidrug resistant Leishmania tropica at 3 uM in presence of 150 uM daunomycin after 72 hrs by MTT assay relative to control
Leishmania tropica [2] = assay: Growth inhibition of wild type Leishmania tropica LRC at 1 uM after 72 hrs by MTT assay relative to control; conditions: read-out: GI
Leishmania tropica [3] = assay: Growth inhibition of multidrug resistant Leishmania tropica at 1 uM in presence of 150 uM daunomycin after 72 hrs by MTT assay relative to control
Leishmania tropica [4] = assay: Growth inhibition of wild type Leishmania tropica LRC at 15 uM after 72 hrs by MTT assay relative to control; conditions: read-out: GI
Leishmania tropica [5] = assay: Growth inhibition of multidrug resistant Leishmania tropica at 15 uM in presence of 150 uM daunomycin after 72 hrs by MTT assay relative to control
Leishmania tropica [6] = assay: Growth inhibition of wild type Leishmania tropica LRC at 7 uM after 72 hrs by MTT assay relative to control; conditions: read-out: GI
Leishmania tropica [7] = assay: Growth inhibition of multidrug resistant Leishmania tropica at 7 uM in presence of 150 uM daunomycin after 72 hrs by MTT assay relative to control
Leishmania tropica [8] = assay: Growth inhibition of wild type Leishmania tropica LRC at 3 uM after 72 hrs by MTT assay relative to control; conditions: read-out: GI

| Compound | growth inhibition (GI) (Leishmania tropica [1]) [%] | inhibition of growth at 1 µM (Leishmania tropica [2]) [%] | growth inhibition (GI) (Leishmania tropica [3]) [%] | inhibition of growth at 15 µM (Leishmania tropica [4]) [%] | growth inhibition (GI) (Leishmania tropica [5]) [%] | inhibition of growth at 7 µM (Leishmania tropica [6]) [%] | growth inhibition (GI) (Leishmania tropica [7]) [%] | inhibition of growth at 3 µM (Leishmania tropica [8]) [%] |
| --- | --- | --- | --- | --- | --- | --- | --- | --- |
| CC(=O)O[C@@H]1[C@@H]2[C@@H](OC(=O)c3cccnc3)[C@@]3(OC2(C)C)[C@@](C)([C@@H](OC(=O)c2ccccc2)CC[C@@]3(C)O)[C@@H]1OC(=O)c1ccccc1 | 62.8 | 0 | 15.8 | 13.6 | 98.5 | 0 | 90.2 | 0 |
| CC(=O)O[C@@H]1[C@@H]2[C@@H](OC(=O)c3cccnc3)[C@]3(OC2(C)C)[C@H](C)CC[C@H](OC(=O)c2ccccc2)[C@@]3(C)[C@@H]1OC(=O)c1ccccc1 | 21.2 | 0 | 8.6 | 2.3 | 96.1 | 0.8 | 59.2 | 0 |
